The source of these data is patent publication US6984649B1, “Pyridine derivatives” (Bayer Aktiengesellschaft, priority 2000, dated 2006).

What is called IC50 is the concentration needed to halve the response being measured.

Counter-ions that a name gives are not always drawn.

The target of this test is T1, human IKK-β (Homo sapiens, UniProt O14920).
T1 construct: A cDNA fragment encoding human IKK-β open reading frame was generated by PCR; His tag (from pcDNA3.1/His C); made in house; host or cells: Sf21 insect cells (baculovirus); substrate made in E. coli
T1 sequence (O14920 1-756): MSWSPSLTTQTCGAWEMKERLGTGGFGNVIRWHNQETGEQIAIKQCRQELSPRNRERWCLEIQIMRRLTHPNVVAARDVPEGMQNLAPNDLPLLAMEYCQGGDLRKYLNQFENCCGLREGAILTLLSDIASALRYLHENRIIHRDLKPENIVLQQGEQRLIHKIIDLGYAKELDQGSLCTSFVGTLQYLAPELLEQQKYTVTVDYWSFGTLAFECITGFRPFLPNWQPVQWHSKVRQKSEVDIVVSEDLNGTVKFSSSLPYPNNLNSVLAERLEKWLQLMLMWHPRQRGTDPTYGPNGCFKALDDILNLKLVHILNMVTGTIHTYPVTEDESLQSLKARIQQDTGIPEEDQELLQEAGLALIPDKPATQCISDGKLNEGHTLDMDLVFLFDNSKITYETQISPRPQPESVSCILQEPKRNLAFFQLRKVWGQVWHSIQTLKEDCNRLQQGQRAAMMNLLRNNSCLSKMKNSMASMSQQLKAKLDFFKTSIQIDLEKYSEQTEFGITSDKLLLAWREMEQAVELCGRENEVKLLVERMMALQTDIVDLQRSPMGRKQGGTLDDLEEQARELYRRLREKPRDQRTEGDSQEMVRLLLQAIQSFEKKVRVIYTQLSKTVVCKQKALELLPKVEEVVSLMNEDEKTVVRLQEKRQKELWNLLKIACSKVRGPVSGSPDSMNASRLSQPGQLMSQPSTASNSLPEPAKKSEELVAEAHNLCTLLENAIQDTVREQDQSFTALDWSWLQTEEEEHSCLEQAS
Description: IKK-β kinase inhibitory assay. Particulars: compounds as yielded by solid phase synthesis, purity about 40 to 90%, read-out: In vitro activity grade (In vitro IC50). The class given is biochemical. In outline:
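His-tagged human IKK-β from baculovirus-infected Sf21 cells (0.6 μg/ml final) phosphorylates biotinylated GST-IκBα(1-54) (0.2 μM) in Tris-HCl pH 7.6 buffer with MgCl2. ATP with [γ-33P]ATP added, then 2 h at room temperature. Biotinylated substrate captured on streptavidin plates; bound radioactivity counted by scintillation.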
As for `O=C1Nc2nc(-c3ccccc3O)cc(C3CCCNC3)c2CO1` (stereo not drawn) [Example 18-2, 7-(2-hydroxyphenyl)-5-(3-piperidinyl)-1,4-dihydro-2H-pyrido[2,3-d][1,3]oxazin-2-one hydrochloride], the IC50 was less than 500 nM.
For the compound `CC1OC(=O)Nc2nc(-c3ccccc3O)cc(C3CCCNC3)c21` (stereo not drawn) [Example 18-3, hydrochloride], the IC50 was in the range of 500 to 2000 nM.
Take `NC(Cc1ccccc1)c1cc(-c2ccccc2O)nc2c1COC(=O)N2` (stereo not drawn) [Example 18-4/18-5, 5-(1-Amino-2-phenyl-ethyl)-7-(2-hydroxy-phenyl)-1,4-dihydro-pyrido[2,3-d][1,3]oxazin-2-one hydrochloride]: the IC50 is less than 500 nM.
Regarding `O=C1Nc2nc(-c3ccccc3O)cc(C3=CCCNC3)c2CO1` [Example 18-6], the half-inhibitory concentration (IC50) was less than 500 nM.
Under `Nc1nc(-c2c(O)cccc2OCc2ccccc2)cc2c1CN1CCCC2C1` (stereo not drawn) [Example 20-1, 2-(6-amino-5,9-diazatricyclo[7.3.1.02,7]trideca-2,4,6-trien-4-yl)-3-(benzyloxy)phenol hydrochloride] stands 500 to 2000 nM; under `Nc1nc(-c2ccccc2O)cc2c1CN[C@@H]2Cc1ccccc1` [Example 20-2, 2-[(1R)-4-amino-1-benzyl-2,3-dihydro-1H-pyrrolo[3,4-d]pyridin-6-yl]phenol hydrochloride], less than 500 nM; under `Nc1nc(-c2c(O)cccc2OCC2CC2)cc(C2CCCNC2)c1CSc1ccccc1` (stereo not drawn) [Example 21-1, 2-[6-amino-5-[(phenylsulfanyl)methyl]-4-(3-piperidinyl)-2-pyridinyl]-3-(cyclopropylmethoxy)phenol hydrochloride], less than 500 nM.
For `Nc1nc(-c2c(O)cccc2OCC2CC2)cc(C2CCNCC2)c1Cn1ccnc1` [Example 21-2, 2-[6-amino-5-(1H-imidazol-1-ylmethyl)-4-(4-piperidinyl)-2-pyridinyl]-3-(cyclopropylmethoxy)phenol hydrochloride] the value was less than 500 nM.
For `Nc1nc(-c2c(O)cccc2OCC2CC2)cc(C2CCNCC2)c1COc1ccccc1` [Example 21-3, 2-[6-amino-5-(phenoxymethyl)-4-(4-piperidinyl)-2-pyridinyl]-3-(cyclopropylmethoxy)phenol hydrochloride] the value was less than 500 nM; for `Nc1nc(-c2c(O)cccc2OCC2CC2)cc(C2CCNCC2)c1CON1C(=O)CCC1=O` [Example 21-4, 1-{[2-amino-6-[2-(cyclopropylmethoxy)-6-hydroxyphenyl]-4-(4-piperidinyl)-3-pyridinyl]methoxy}-2,5-pyrrolidinedione hydrochloride], less than 500 nM; for `O=C1NCc2c(C3CCCNC3)cc(-c3ccccc3O)nc2N1` (stereo not drawn) [Example 22-1, 7-(2-hydroxyphenyl)-5-(3-piperidinyl)-3,4-dihydropyrido[2,3-d]pyrimidin-2(1H)-one hydrochloride], less than 500 nM.
For the compound `O=C1NCc2c(C3CCCNC3)cc(-c3c(O)cccc3OCC3CC3)nc2N1` (stereo not drawn) [Example 22-2, 7-[2-(cyclopropylmethoxy)-6-hydroxyphenyl]-5-(3-piperidinyl)-3,4-dihydro-1H-pyrido[2,3-d]-pyrimidin-2-one hydrochloride], the IC50 is less than 500 nM.
For `O=C1NCc2c(C3CCNCC3)cc(-c3c(O)cccc3OCC3CC3)nc2N1` [Example 22-3, 7-[2-(cyclopropylmethoxy)-6-hydroxyphenyl]-5-(4-piperidinyl)-3,4-dihydro-1H-pyrido[2,3-d]pyrimidin-2-one hydrochloride] the value was less than 500 nM; for `O=S1(=O)NCc2c(C3CCCNC3)cc(-c3ccccc3O)nc2N1` (stereo not drawn) [Example 22-5, 2-[2,2-dioxido-5-(3-piperidinyl)-3,4-dihydro-1H-pyrido[2,3-c][1,2,6]thiadiazin-7-yl]phenol hydrochloride], less than 500 nM; for `CC(=O)NCc1c(C2CCCNC2)cc(-c2c(O)cccc2OCC2CC2)nc1N` (stereo not drawn) [Example 23-1, N-{[2-amino-6-[2-(cyclopropylmethoxy)-6-hydroxyphenyl]-4-(3-piperidinyl)-3-pyridinyl]methyl}acetamide hydrochoride], less than 500 nM.
